Publication PMC11685127, “Pharmacokinetic/pharma-codynamic study of pralurbactam (FL058) combined with meropenem in a neutropenic murine thigh infection model” (Frontiers in Microbiology, 2024)
Like-named read-outs stand apart in the source and are kept apart here. One block for each molecule: values may come before it.

How the values were obtained:
Escherichia coli [1] = test: Neutropenic murine thigh infection model, PK/PD Emax fitting; format: in vivo; details: 50 mg/kg meropenem alone q2h (without pralurbactam); strains 18-W40-096 and ATCC BAA-2452
Procedure: (§1) Mice (SPF grade, female, 25–30 g, 6–7 weeks) were provided by Beijing Huafukang Biotechnology Co. The animal study was reviewed and approved by the Animal Ethics Committee of State Key Laboratory of Biotherapy, Sichuan University (approval letter No.: 20190923035). All experimental animals from the study were intraperitoneally injected with cyclophosphamide (solution using 0.9% sodium chloride injection to achieve a concentration of 15 mg/ml) at a dose of 150 mg/kg at 4 days and 1 day prior to the day of infection to form immunocompromised mouse models. The hair on both thighs of the mice was shaved off 2 h before inoculation. The injection site was disinfected with 75% alcohol before intramuscular injection and dried with skimmed cotton. The mouse was challenged by inoculum of 1 × 10^8 CFU/ml of the test strain via injection of 50 μl of bacterial solution into both thighs. The time was referred to as t = 0 h, 2 h after the mice were infected. The control mice were euthanized at this time to record the initial bacterial colonies by taking the thigh muscle. The specific dosage of pralurbactam or meropenem for each dosing regimen was intraperitoneally injected (t = 0 h). At 26 h after the mice were infected (t = 24 h), the mice (experimental group) in each dosage cohort were euthanized to record the bacterial load to calculate CFU change (Δlog10 CFU).

E. coli = test: Susceptibility testing (MIC); format: cell-based; details: drug alone
Description: (§2) The study used a total of […] strains of KPC-, NDM-, or OXA-producing Enterobacterales (three strains of K. pneumoniae and four strains of E. coli), which were provided by Microbiology Division, Institute of Antibiotics, Huashan Hospital, Fudan University. Quality control strains are selected for each bacteria.
(§3) Supplementary Table 1 Susceptibility testing results of meropenem alone, pralurbactam alone, or meropenem with FL058 in combination against K. pneumoniae and E. coli

K. pneumoniae = test: Susceptibility testing (MIC); format: cell-based; details: drug alone
Description: as §2, §3

[2] = tested on: class A, C, and D β-lactamases; design: method as in Sharma et al., 2016; details: ref Sharma et al., 2016; cited from earlier work
[3] = Single-dose intraperitoneal PK of pralurbactam in mice plasma (UPLC-MS/MS, one-compartment model, population PK); format: in vivo; details: for Dose proportionality of Cmax or AUCinf (PK linearity): 5-500 mg/kg ip, non-compartmental regression analysis
Description: The ultra-high performance liquid chromatography-tandem mass spectrometry (UPLC-MS/MS) system consisted of an LC-30A UPLC (Shimadzu Corporation, Japan) equipped with an Atlantis® T3 (3 μm, 2.1 × 100 mm) column, liquidity, and the cleaning solution mixed with formic acid, ammonium acetate, and acetonitrile, an API5500 mass spectrometer (AB SCIEX, USA). The retention times of chromatographic peaks and mass-to-charge ratios were obtained by MRM scanning pralurbactam (m/z 383.2 → 303.0), meropenem (m/z 384.1 → 141.2), internal standards pralurbactam-D4 (m/z 387.3 → 307.1), and meropenem-D6 (m/z 390.1 → 147.2) for peak identification. The drug concentration in the samples was calculated using Watson LIMS (version 7.5).
The UPLC-MS/MS method used to measure pralurbactam and meropenem concentrations in mice plasma was validated accurately in terms of selectivity, interaction, matrix effect, calibration curve, linearity, precision, accuracy, recovery, and stability. […] At this LLOQ level, the intra- and inter-assay precision was 3.5%–9.0% and 6.3% for pralurbactam, 5.0%–10.7% and 14.3% for meropenem. The overall recovery of pralurbactam and meropenem was 81.2% and 58.6%, respectively, and the corresponding coefficient of variation (CV) was 8.0% and 5.4%. This assay method was applied to quantify pralurbactam and meropenem for PK study.
The administration method for pralurbactam or meropenem (dissolved in sterile water) is single-dose intraperitoneal injection. […] Five mice were randomly selected for anesthesia and orbital blood sampling at each time-point (0.083, 0.25, 0.5, 1, 2, 3, 4, and 6 h) after dosing. A blood sample (600–800 μl) was obtained from the mouse immediately. Each mouse selected for blood sampling at each time point was euthanized immediately. The concentrations of pralurbactam and meropenem in plasma samples were determined using the validated UPLC-MS/MS method. PK parameters (including non-compartmental parameter linear fitting and compartmental simulation) of pralurbactam and meropenem in plasma were calculated using Phoenix WinNonlin (version 8.1, Certara Corporation). The compartmental PK parameters of pralurbactam were used to calculate the fCmax, fAUC0–24, and %fT > CT. The free fraction of pralurbactam was 100% based on in vitro mouse plasma.
In this study, the PK parameters of pralurbactam were calculated for each dosage cohort using Phoenix WinNonlin software based on the mean plasma concentrations at each sampling point in mice. The mean values of the PK parameters were used to simulate the potential PK/PD indices. Another method, the PK parameters could be estimated by the population PK (PPK) model using NONMEM software based on the pooled plasma concentrations. The estimated typical values of Ke and V/F based on the population PK model of pralurbactam were generally consistent with the classical mean values of Ke (PPK: 2.34 h^1 vs. classical PK: 2.55 h^1) and V/F (PPK: 0.719 L vs. classical PK: 0.72 L).

[4] = human, in vivo, cited from earlier work
Klebsiella pneumoniae = test: Neutropenic murine thigh infection model, PK/PD Emax fitting; format: in vivo; details: fixed 100 mg/kg q2h of meropenem; strains 17-R1-16, 20-W2-70, ATCC BAA-1705
Procedure: as §1

Escherichia coli [5] = details: cited from earlier work
[6] = Free fraction in in vitro mouse plasma; format: in vitro ADME
[7] = mean of all dosage cohorts, classical one-compartment PK
[8] = population PK (PPK) model, NONMEM, typical value, pooled plasma concentrations
[9] = pralurbactam 5 mg/kg ip single dose, alone, one-compartment model
[10] = pralurbactam 50 mg/kg ip single dose, alone, one-compartment model
[11] = pralurbactam 50 mg/kg ip, combined with meropenem 100 mg/kg, one-compartment model
[12] = pralurbactam 250 mg/kg ip, combined with meropenem 100 mg/kg, one-compartment model
[13] = pralurbactam 500 mg/kg ip single dose, alone, one-compartment model

MIC (E. coli; 18-W32-020 (NDM-5)): 32 µg/mL
MIC (E. coli; 18-W39-088 (NDM-1)): > 64 µg/mL
MIC (E. coli; 18-W40-096 (NDM-1)): 64 µg/mL
MIC (E. coli; ATCC BAA-2452 (NDM-1)): 32 µg/mL
MIC (K. pneumoniae; 17-R1-16 (KPC-2, CTX-M-14)): > 64 µg/mL
MIC (K. pneumoniae; 20-W2-70 (OXA-48)): 32 µg/mL
MIC (K. pneumoniae; ATCC BAA-1705 (KPC-2)): 16 µg/mL
SMILES: C[C@@H](O)[C@H]1C(=O)N2C(C(=O)O)=C(S[C@@H]3CN[C@H](C(=O)N(C)C)C3)[C@H](C)[C@H]12 [Meropenem]
Growth inhibition in thigh model (Escherichia coli [1]): significant growth inhibition

SMILES: N=C(N)NOCCONC(=O)[C@@H]1CC[C@@H]2CN1C(=O)N2OS(=O)(=O)O [Pralurbactam]
Activity against β-lactamases in vitro [2]: active
%fT > 1 mg/L ([3]; 50 mg/kg q2h pralurbactam intraperitoneally in mice): 88%
Dose proportionality of Cmax or AUCinf (PK linearity) [3]: linear
Dose proportionality of Cmax or AUCinf (PK linearity) ([3]; listed as pralurbactam): dose proportional
Ka [3, 7]: 50.2 h^1
Ke [3, 7]: 2.55 h^1
V/F [3, 7]: 0.72 L
Ka ([3]; median value of dosage cohorts, classical PK): 26.0 h^1
Ka ([3]; population PK (PPK) model, NONMEM, estimate): 29.1 h^1
Ke [3, 8]: 2.34 h^1
V/F [3, 8]: 0.719 L
Ka [3, 9]: 27.4 h^1
Ke [3, 9]: 2.24 h^1
V/F [3, 9]: 0.77 L
Ka [3, 10]: 13.7 h^1
Ke [3, 10]: 3.83 h^1
V/F [3, 10]: 0.55 L
Ka [3, 11]: 24.5 h^1
Ke [3, 11]: 2.11 h^1
V/F [3, 11]: 0.79 L
Ka [3, 12]: 26.0 h^1
Ke [3, 12]: 1.93 h^1
V/F [3, 12]: 0.91 L
Ka [3, 13]: 159.4 h^1
Ke [3, 13]: 2.64 h^1
V/F [3, 13]: 0.57 L
%fT > 1 mg/L ([4]; iv): 86%
Safety, tolerance and PK profiles [4]: good safety, tolerance, and PK profiles
Pralurbactam dose in the combination that inhibits growth of all test strains (Klebsiella pneumoniae): at least 25 mg/kg
Activity of pralurbactam alone (Escherichia coli [5]; ref Huang et al., 2024a): partial activity
Inhibitory effect of pralurbactam alone (Escherichia coli [5]; ref in vitro susceptibility study (to be published)): notable inhibitory effects
MIC (E. coli; 18-W32-020 (NDM-5)): 2 µg/mL
MIC (E. coli; 18-W39-088 (NDM-1)): 4 µg/mL
MIC (E. coli; 18-W40-096 (NDM-1)): 4 µg/mL
MIC (E. coli; ATCC BAA-2452 (NDM-1)): 4 µg/mL
MIC (K. pneumoniae; 17-R1-16 (KPC-2, CTX-M-14)): > 64 µg/mL
MIC (K. pneumoniae; 20-W2-70 (OXA-48)): 8 µg/mL
MIC (K. pneumoniae; ATCC BAA-1705 (KPC-2)): 4 µg/mL
Free fraction [6]: 100%
